Assay results from ChEMBL document CHEMBL4219190, “Studies on synthesis of novel pyrido[2,3-d]pyrimidine derivatives, evaluation of their antimicrobial activity and molecular docking” (Bioorg Med Chem Lett, 2018).
Values after ≈ are worked out from the molar mass of the structure shown. Active and inactive are the calls of the source. The calls are words filed in the database; no cut-off is given here.

How the values were obtained:
[1] = test system: Bacillus subtilis; experiment: Bactericidal activity against Bacillus subtilis MTCC 121 incubated for 24 hrs followed by transfer of microbial suspension to Mueller Hinton agar plates and measured after 24 hrs post transfer; assay type: functional; conditions: MTCC 121, 24 h
[2] = test system: Candida albicans; experiment: Inhibition of ergosterol in Candida albicans MTCC 183 after 20 hrs by UV spectrophotometric method; assay type: functional, organism-based
[3] = test system: Bacillus subtilis; experiment: Antibacterial activity against Bacillus subtilis MTCC 121 after 24 hrs by well diffusion method; assay type: functional; conditions: MTCC 121, 24 h
[4] = test system: Staphylococcus aureus; experiment: Antibacterial activity against Staphylococcus aureus MTCC 96 after 24 hrs by well diffusion method; assay type: functional; conditions: MTCC 96, 24 h
[5] = test system: Staphylococcus aureus; experiment: Antibacterial activity against Staphylococcus aureus MLS16 MTCC 2940 after 24 hrs by well diffusion method; assay type: functional; conditions: MLS16 MTCC 2940, 24 h
[6] = test system: Micrococcus luteus; experiment: Antibacterial activity against Micrococcus luteus MTCC 2470 after 24 hrs by well diffusion method; assay type: functional; conditions: MTCC 2470, 24 h
[7] = test system: Raoultella planticola; experiment: Antibacterial activity against Klebsiella planticola MTCC 530 after 24 hrs by well diffusion method; assay type: functional; conditions: MTCC 530, 24 h
[8] = test system: Escherichia coli; experiment: Antibacterial activity against Escherichia coli MTCC 739 after 24 hrs by well diffusion method; assay type: functional; conditions: MTCC 739, 24 h
[9] = test system: Pseudomonas aeruginosa; experiment: Antibacterial activity against Pseudomonas aeruginosa MTCC 2453 after 24 hrs by well diffusion method; assay type: functional; conditions: MTCC 2453, 24 h
[10] = test system: Staphylococcus aureus; experiment: Bactericidal activity against Staphylococcus aureus MTCC 96 incubated for 24 hrs followed by transfer of microbial suspension to Mueller Hinton agar plates and measured after 24 hrs post transfer; assay type: functional; conditions: MTCC 96, 24 h
[11] = test system: Staphylococcus aureus; experiment: Bactericidal activity against Staphylococcus aureus MLS16 MTCC 2940 incubated for 24 hrs followed by transfer of microbial suspension to Mueller Hinton agar plates and measured after 24 hrs post transfer; assay type: functional; conditions: MLS16 MTCC 2940, 24 h
[12] = test system: Micrococcus luteus; experiment: Bactericidal activity against Micrococcus luteus MTCC 2470 incubated for 24 hrs followed by transfer of microbial suspension to Mueller Hinton agar plates and measured after 24 hrs post transfer; assay type: functional; conditions: MTCC 2470, 24 h
[13] = test system: Raoultella planticola; experiment: Bactericidal activity against Klebsiella planticola MTCC 530 incubated for 24 hrs followed by transfer of microbial suspension to Mueller Hinton agar plates and measured after 24 hrs post transfer; assay type: functional; conditions: MTCC 530, 24 h
[14] = test system: Escherichia coli; experiment: Bactericidal activity against Escherichia coli MTCC 739 incubated for 24 hrs followed by transfer of microbial suspension to Mueller Hinton agar plates and measured after 24 hrs post transfer; assay type: functional; conditions: MTCC 739, 24 h
[15] = test system: Pseudomonas aeruginosa; experiment: Bactericidal activity against Pseudomonas aeruginosa MTCC 2453 incubated for 24 hrs followed by transfer of microbial suspension to Mueller Hinton agar plates and measured after 24 hrs post transfer; assay type: functional; conditions: MTCC 2453, 24 h
[16] = test system: Candida albicans; experiment: Antifungal activity against Candida albicans MTCC 183 after 24 hrs by well diffusion method; assay type: functional; conditions: MTCC 183, 24 h
[17] = test system: Candida albicans; experiment: Antifungal activity against Candida albicans MTCC 227 after 24 hrs by well diffusion method; assay type: functional; conditions: MTCC 227, 24 h
[18] = test system: Candida albicans; experiment: Antifungal activity against Candida albicans MTCC 854 after 24 hrs by well diffusion method; assay type: functional; conditions: MTCC 854, 24 h
[19] = test system: Candida albicans; experiment: Antifungal activity against Candida albicans MTCC 1637 after 24 hrs by well diffusion method; assay type: functional; conditions: MTCC 1637, 24 h
[20] = test system: Candida albicans; experiment: Antifungal activity against Candida albicans MTCC 3018 after 24 hrs by well diffusion method; assay type: functional; conditions: MTCC 3018, 24 h
[21] = test system: Candida albicans; experiment: Antifungal activity against Candida albicans MTCC 3017 after 24 hrs by well diffusion method; assay type: functional; conditions: MTCC 3017, 24 h
[22] = test system: Candida albicans; experiment: Antifungal activity against Candida albicans MTCC 3958 after 24 hrs by well diffusion method; assay type: functional; conditions: MTCC 3958, 24 h
[23] = test system: Candida albicans; experiment: Antifungal activity against Candida albicans MTCC 4748 after 24 hrs by well diffusion method; assay type: functional; conditions: MTCC 4748, 24 h
[24] = test system: Candida albicans; experiment: Antifungal activity against Candida albicans MTCC 7315 after 24 hrs by well diffusion method; assay type: functional; conditions: MTCC 7315, 24 h
[25] = test system: Candida parapsilosis; experiment: Antifungal activity against Candida parapsilosis MTCC 1744 after 24 hrs by well diffusion method; assay type: functional; conditions: MTCC 1744, 24 h
[26] = test system: [Candida] aaseri; experiment: Antifungal activity against Candida aaseri MTCC 1962 after 24 hrs by well diffusion method; assay type: functional; conditions: Yamadazyma aaseri, MTCC 1962, 24 h
[27] = test system: Nakaseomyces glabratus; experiment: Antifungal activity against Candida glabrata MTCC 3019 after 24 hrs by well diffusion method; assay type: functional
[28] = test system: Pichia kudriavzevii; experiment: Antifungal activity against Candida krusei MTCC 3020 after 24 hrs by well diffusion method; assay type: functional
[29] = test system: Pichia sporocuriosa; experiment: Antifungal activity against Issatchenkia hanoiensis MTCC 4755 after 24 hrs by well diffusion method; assay type: functional; conditions: MTCC 4755, 24 h
[30] = test system: Candida albicans; experiment: Fungicidal activity against Candida albicans MTCC 183 incubated for 24 hrs followed by transfer of microbial suspension to Sabouraud dextrose agar plates and measured after 24 hrs post transfer; assay type: functional; conditions: MTCC 183, 24 h
[31] = test system: Candida albicans; experiment: Fungicidal activity against Candida albicans MTCC 227 incubated for 24 hrs followed by transfer of microbial suspension to Sabouraud dextrose agar plates and measured after 24 hrs post transfer; assay type: functional; conditions: MTCC 227, 24 h
[32] = test system: Candida albicans; experiment: Fungicidal activity against Candida albicans MTCC 854 incubated for 24 hrs followed by transfer of microbial suspension to Sabouraud dextrose agar plates and measured after 24 hrs post transfer; assay type: functional; conditions: MTCC 854, 24 h
[33] = test system: Candida albicans; experiment: Fungicidal activity against Candida albicans MTCC 1637 incubated for 24 hrs followed by transfer of microbial suspension to Sabouraud dextrose agar plates and measured after 24 hrs post transfer; assay type: functional; conditions: MTCC 1637, 24 h
[34] = test system: Candida albicans; experiment: Fungicidal activity against Candida albicans MTCC 3017 incubated for 24 hrs followed by transfer of microbial suspension to Sabouraud dextrose agar plates and measured after 24 hrs post transfer; assay type: functional; conditions: MTCC 3017, 24 h
[35] = test system: Candida albicans; experiment: Fungicidal activity against Candida albicans MTCC 3018 incubated for 24 hrs followed by transfer of microbial suspension to Sabouraud dextrose agar plates and measured after 24 hrs post transfer; assay type: functional; conditions: MTCC 3018, 24 h
[36] = test system: Candida albicans; experiment: Fungicidal activity against Candida albicans MTCC 3958 incubated for 24 hrs followed by transfer of microbial suspension to Sabouraud dextrose agar plates and measured after 24 hrs post transfer; assay type: functional; conditions: MTCC 3958, 24 h
[37] = test system: Candida albicans; experiment: Fungicidal activity against Candida albicans MTCC 4748 incubated for 24 hrs followed by transfer of microbial suspension to Sabouraud dextrose agar plates and measured after 24 hrs post transfer; assay type: functional; conditions: MTCC 4748, 24 h
[38] = test system: Candida albicans; experiment: Fungicidal activity against Candida albicans MTCC 7315 incubated for 24 hrs followed by transfer of microbial suspension to Sabouraud dextrose agar plates and measured after 24 hrs post transfer; assay type: functional; conditions: MTCC 7315, 24 h
[39] = test system: Candida parapsilosis; experiment: Fungicidal activity against Candida parapsilosis MTCC 1744 incubated for 24 hrs followed by transfer of microbial suspension to Sabouraud dextrose agar plates and measured after 24 hrs post transfer; assay type: functional; conditions: Lodderomyces parapsilosis, MTCC 1744, 24 h
[40] = test system: [Candida] aaseri; experiment: Fungicidal activity against Candida aaseri MTCC 1962 incubated for 24 hrs followed by transfer of microbial suspension to Sabouraud dextrose agar plates and measured after 24 hrs post transfer; assay type: functional; conditions: Yamadazyma aaseri, MTCC 1962, 24 h
[41] = test system: Nakaseomyces glabratus; experiment: Fungicidal activity against Candida glabrata MTCC 3019 incubated for 24 hrs followed by transfer of microbial suspension to Sabouraud dextrose agar plates and measured after 24 hrs post transfer; assay type: functional
[42] = test system: Pichia kudriavzevii; experiment: Fungicidal activity against Candida krusei MTCC 3020 incubated for 24 hrs followed by transfer of microbial suspension to Sabouraud dextrose agar plates and measured after 24 hrs post transfer; assay type: functional
[43] = test system: Pichia sporocuriosa; experiment: Fungicidal activity against Issatchenkia hanoiensis MTCC 4755 incubated for 24 hrs followed by transfer of microbial suspension to Sabouraud dextrose agar plates and measured after 24 hrs post transfer; assay type: functional; conditions: MTCC 4755, 24 h
[44] = test system: Bacillus subtilis; experiment: Antibiofilm activity against Bacillus subtilis MTCC 121 after 24 hrs by crystal violet staining-based assay; assay type: functional, organism-based; conditions: Bacillus subtilis, MTCC 121, 24 h; read-out: IC50
[45] = test system: Staphylococcus aureus; experiment: Antibiofilm activity against Staphylococcus aureus MTCC 96 after 24 hrs by crystal violet staining-based assay; assay type: functional, organism-based; conditions: Staphylococcus aureus, MTCC 96, 24 h; read-out: IC50
[46] = test system: Staphylococcus aureus; experiment: Antibiofilm activity against Staphylococcus aureus MLS16 MTCC 2940 after 24 hrs by crystal violet staining-based assay; assay type: functional, organism-based; conditions: Staphylococcus aureus, MLS16 MTCC 2940, 24 h; read-out: IC50
[47] = test system: Pseudomonas aeruginosa; experiment: Antibiofilm activity against Pseudomonas aeruginosa MTCC 2453 after 24 hrs by crystal violet staining-based assay; assay type: functional, organism-based; conditions: Pseudomonas aeruginosa, MTCC 2453, 24 h; read-out: IC50
[48] = test system: Raoultella planticola; experiment: Antibiofilm activity against Klebsiella planticola MTCC 530 after 24 hrs by crystal violet staining-based assay; assay type: functional, organism-based; conditions: Klebsiella planticola, MTCC 530, 24 h; read-out: IC50

CN1CCN(C(=O)c2nc(-c3ccccc3)c3c(C(F)(F)F)cc(-c4ccccc4)nc3n2)CC1
MBC [1]: 31.2 µg/mL (≈ 65.3 µM) | inhibition [2]: Dose-dependent effect | MIC [3]: 15.6 µg/mL (≈ 32.7 µM) | MIC [4]: 7.8 µg/mL (≈ 16.3 µM) | MIC [5]: 15.6 µg/mL (≈ 32.7 µM) | MIC [6]: 15.6 µg/mL (≈ 32.7 µM) | MIC [7]: 31.2 µg/mL (≈ 65.3 µM) | MIC [8]: 15.6 µg/mL (≈ 32.7 µM) | MIC [9]: 31.2 µg/mL (≈ 65.3 µM) | MBC [10]: 15.6 µg/mL (≈ 32.7 µM) | MBC [11]: 31.2 µg/mL (≈ 65.3 µM) | MBC [12]: 15.6 µg/mL (≈ 32.7 µM) | MBC [13]: 62.4 µg/mL (≈ 131 µM) | MBC [14]: 31.2 µg/mL (≈ 65.3 µM) | MBC [15]: 62.4 µg/mL (≈ 131 µM) | MIC [16]: 3.9 µg/mL (≈ 8.17 µM) | MIC [17]: 3.9 µg/mL (≈ 8.17 µM) | MIC [18]: 7.8 µg/mL (≈ 16.3 µM) | MIC [19]: 7.8 µg/mL (≈ 16.3 µM) | MIC [20]: 15.6 µg/mL (≈ 32.7 µM) | MIC [21]: 3.9 µg/mL (≈ 8.17 µM) | MIC [22]: 7.8 µg/mL (≈ 16.3 µM) | MIC [23]: 15.6 µg/mL (≈ 32.7 µM) | MIC [24]: 31.2 µg/mL (≈ 65.3 µM) | MIC [25]: 31.2 µg/mL (≈ 65.3 µM) | MIC [26]: 7.8 µg/mL (≈ 16.3 µM) | MIC [27]: inactive | MIC [28]: inactive | MIC [29]: 15.6 µg/mL (≈ 32.7 µM) | MFC [30]: 3.9 µg/mL (≈ 8.17 µM) | MFC [31]: 7.8 µg/mL (≈ 16.3 µM) | MFC [32]: 15.6 µg/mL (≈ 32.7 µM) | MFC [33]: 15.6 µg/mL (≈ 32.7 µM) | MFC [34]: 7.8 µg/mL (≈ 16.3 µM) | MFC [35]: 31.2 µg/mL (≈ 65.3 µM) | MFC [36]: 15.6 µg/mL (≈ 32.7 µM) | MFC [37]: 31.2 µg/mL (≈ 65.3 µM) | MFC [38]: 62.5 µg/mL (≈ 131 µM) | MFC [39]: 62.5 µg/mL (≈ 131 µM) | MFC [40]: 15.6 µg/mL (≈ 32.7 µM) | MFC [41]: inactive | MFC [42]: inactive | MFC [43]: 31.2 µg/mL (≈ 65.3 µM) | IC50 [44]: 10.8 µg/mL (≈ 22.6 µM) | IC50 [45]: 5.4 µg/mL (≈ 11.3 µM) | IC50 [46]: 10.8 µg/mL (≈ 22.6 µM) | IC50 [47]: 21.6 µg/mL (≈ 45.2 µM) | IC50 [48]: 21.6 µg/mL (≈ 45.2 µM)
